Experimental data reported in the supplement of paper PMC10307832.

Tests used:
Assay in all cases: relative viability (nuclei count vs DMSO), 5 days (fraction); higher = more cells survive
NCI-H596 = system: NCI-H596
Summary of the method: (§1)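 Lung cancer cell lines were pin-tool dosed in 1536-well plates on the day after seeding, with either a lone drug or a fixed anchor-drug dose plus five library-drug doses (not always all listed) in √10 steps. Nuclei were counted on 4× images after 5 days. Relative viability is the ratio of treated-well to vehicle-well nuclei counts, with each value a median of duplicate plates.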

SK-LU-1 = system: SK-LU-1
Summary of the method: as §1

PC-3 [JPC-3] = system: PC-3 [JPC-3]
Summary of the method: as §1

NCI-H1755 = system: NCI-H1755
Summary of the method: as §1

NCI-H2009 = system: NCI-H2009
Summary of the method: as §1

PC-14 = system: PC-14
Summary of the method: as §1

NCI-H460 = system: NCI-H460
Summary of the method: as §1

NCI-H1437 = system: NCI-H1437
Summary of the method: as §1

HCC-15 = system: HCC-15
Summary of the method: as §1

LXF-289 = system: LXF-289
Summary of the method: as §1

H3255 = system: H3255
Summary of the method: as §1

NCI-H1793 = system: NCI-H1793
Summary of the method: as §1

A-427 = system: A-427
Summary of the method: as §1

NCI-H1915 = system: NCI-H1915
Summary of the method: as §1

UMC-11 = system: UMC-11
Summary of the method: as §1

NCI-H441 = system: NCI-H441
Summary of the method: as §1

NCI-H3122 = system: NCI-H3122
Summary of the method: as §1

HARA = system: HARA
Summary of the method: as §1

HCC-366 = system: HCC-366
Summary of the method: as §1

NCI-H2405 = system: NCI-H2405
Summary of the method: as §1

NCI-H1975 = system: NCI-H1975
Summary of the method: as §1

NCI-H650 = system: NCI-H650
Summary of the method: as §1

NCI-H2023 = system: NCI-H2023
Summary of the method: as §1

Compound O=c1[nH]c2ccccc2n1C1CCN(CCCC(c2ccc(F)cc2)c2ccc(F)cc2)CC1 [Pimozide] + COc1cccc2cc(-c3nc([C@H]4CC[C@H](C(=O)O)CC4)n4ncnc(N)c34)[nH]c12 [OSI-027] (partner 0.5 µM) has a relative viability (NCI-H596; first compound 0.08 µM) of 0.627, a relative viability (NCI-H596; first compound 0.253 µM) of 0.851 and a relative viability (NCI-H596; first compound 0.8 µM) of 0.642. The relative viability (NCI-H596; first compound 2.53 µM) was 0.627, the relative viability (NCI-H596; first compound 8 µM) was 0.481 and the relative viability (SK-LU-1; first compound 0.08 µM) was 0.417. For the same compound, the relative viability (SK-LU-1; first compound 0.253 µM) was 0.331, the relative viability (SK-LU-1; first compound 0.8 µM) was 0.285 and the relative viability (SK-LU-1; first compound 2.53 µM) was 0.231. It also gave a relative viability (SK-LU-1; first compound 8 µM) of 0.201, a relative viability (PC-3 [JPC-3]; first compound 0.08 µM) of 0.338 and a relative viability (PC-3 [JPC-3]; first compound 0.253 µM) of 0.739. It also gave a relative viability (PC-3 [JPC-3]; first compound 0.8 µM) of 0.688, a relative viability (PC-3 [JPC-3]; first compound 2.53 µM) of 0.746 and a relative viability (PC-3 [JPC-3]; first compound 8 µM) of 0.685. It also gave a relative viability (NCI-H1755; first compound 0.08 µM) of 0.678, a relative viability (NCI-H1755; first compound 0.253 µM) of 0.687 and a relative viability (NCI-H1755; first compound 0.8 µM) of 0.678. It also gave a relative viability (NCI-H1755; first compound 2.53 µM) of 0.597, a relative viability (NCI-H1755; first compound 8 µM) of 0.51 and a relative viability (NCI-H2009; first compound 0.08 µM) of 0.69. For the same compound, the relative viability (NCI-H2009; first compound 0.253 µM) was 0.655, the relative viability (NCI-H2009; first compound 0.8 µM) was 0.671 and the relative viability (NCI-H2009; first compound 2.53 µM) was 0.526. The relative viability (NCI-H2009; first compound 8 µM) was 0.416, the relative viability (PC-14; first compound 0.08 µM) was 0.182 and the relative viability (PC-14; first compound 0.253 µM) was 0.743. It also gave a relative viability (PC-14; first compound 0.8 µM) of 0.764, a relative viability (PC-14; first compound 2.53 µM) of 0.624 and a relative viability (PC-14; first compound 8 µM) of 0.621. The relative viability (NCI-H460; first compound 0.08 µM) was 0.755, the relative viability (NCI-H460; first compound 0.253 µM) was 0.66 and the relative viability (NCI-H460; first compound 0.8 µM) was 0.708. The relative viability (NCI-H460; first compound 2.53 µM) was 0.518, the relative viability (NCI-H460; first compound 8 µM) was 0.484 and the relative viability (NCI-H1437; first compound 0.08 µM) was 0.93. For the same compound, the relative viability (NCI-H1437; first compound 0.253 µM) was 0.888, the relative viability (NCI-H1437; first compound 0.8 µM) was 0.883 and the relative viability (NCI-H1437; first compound 2.53 µM) was 0.89. The relative viability (NCI-H1437; first compound 8 µM) was 0.676, the relative viability (HCC-15; first compound 0.08 µM) was 0.817 and the relative viability (HCC-15; first compound 0.253 µM) was 0.668. It also gave a relative viability (HCC-15; first compound 0.8 µM) of 0.472, a relative viability (HCC-15; first compound 2.53 µM) of 0.618 and a relative viability (HCC-15; first compound 8 µM) of 0.573. It also gave a relative viability (LXF-289; first compound 0.08 µM) of 0.693, a relative viability (LXF-289; first compound 0.253 µM) of 0.786 and a relative viability (LXF-289; first compound 0.8 µM) of 0.773. For the same compound, the relative viability (LXF-289; first compound 2.53 µM) was 0.811, the relative viability (LXF-289; first compound 8 µM) was 0.716 and the relative viability (H3255; first compound 0.253 µM) was 0.514. For the same compound, the relative viability (H3255; first compound 0.8 µM) was 0.563, the relative viability (H3255; first compound 2.53 µM) was 0.6 and the relative viability (H3255; first compound 8 µM) was 0.584. The relative viability (NCI-H1793; first compound 0.253 µM) was 0.239, the relative viability (NCI-H1793; first compound 0.8 µM) was 0.205 and the relative viability (NCI-H1793; first compound 2.53 µM) was 0.245. It also gave a relative viability (NCI-H1793; first compound 8 µM) of 0.115, a relative viability (A-427; first compound 0.08 µM) of 0.433 and a relative viability (A-427; first compound 0.253 µM) of 0.468. The relative viability (A-427; first compound 0.8 µM) was 0.414, the relative viability (A-427; first compound 2.53 µM) was 0.419 and the relative viability (A-427; first compound 8 µM) was 0.406. The relative viability (NCI-H1915; first compound 0.08 µM) was 0.6, the relative viability (NCI-H1915; first compound 0.253 µM) was 0.575 and the relative viability (NCI-H1915; first compound 0.8 µM) was 0.384. The relative viability (NCI-H1915; first compound 2.53 µM) was 0.581, the relative viability (NCI-H1915; first compound 8 µM) was 0.478 and the relative viability (UMC-11; first compound 0.08 µM) was 0.515. It also gave a relative viability (UMC-11; first compound 0.253 µM) of 0.421, a relative viability (UMC-11; first compound 0.8 µM) of 0.51 and a relative viability (UMC-11; first compound 2.53 µM) of 0.357. The relative viability (UMC-11; first compound 8 µM) was 0.312, the relative viability (NCI-H441; first compound 0.08 µM) was 0.608 and the relative viability (NCI-H441; first compound 0.253 µM) was 0.577. For the same compound, the relative viability (NCI-H441; first compound 0.8 µM) was 0.478, the relative viability (NCI-H441; first compound 2.53 µM) was 0.436 and the relative viability (NCI-H441; first compound 8 µM) was 0.406. It also gave a relative viability (NCI-H3122; first compound 0.08 µM) of 1.01, a relative viability (NCI-H3122; first compound 0.253 µM) of 0.873 and a relative viability (NCI-H3122; first compound 0.8 µM) of 0.826. It also gave a relative viability (NCI-H3122; first compound 2.53 µM) of 0.926, a relative viability (NCI-H3122; first compound 8 µM) of 0.822 and a relative viability (HARA; first compound 0.253 µM) of 0.518. For the same compound, the relative viability (HARA; first compound 0.8 µM) was 0.196, the relative viability (HARA; first compound 2.53 µM) was 0.384 and the relative viability (HARA; first compound 8 µM) was 0.264. It also gave a relative viability (HCC-366; first compound 0.08 µM) of 0.825, a relative viability (HCC-366; first compound 0.253 µM) of 0.795 and a relative viability (HCC-366; first compound 0.8 µM) of 0.477. For the same compound, the relative viability (HCC-366; first compound 2.53 µM) was 0.614, the relative viability (HCC-366; first compound 8 µM) was 0.206 and the relative viability (NCI-H2405; first compound 0.08 µM) was 0.654. It also gave a relative viability (NCI-H2405; first compound 0.253 µM) of 0.576, a relative viability (NCI-H2405; first compound 0.8 µM) of 0.689 and a relative viability (NCI-H2405; first compound 2.53 µM) of 0.665. It also gave a relative viability (NCI-H2405; first compound 8 µM) of 0.707, a relative viability (NCI-H1975; first compound 0.08 µM) of 0.838 and a relative viability (NCI-H1975; first compound 0.253 µM) of 0.695. It also gave a relative viability (NCI-H1975; first compound 0.8 µM) of 0.753, a relative viability (NCI-H1975; first compound 2.53 µM) of 0.651 and a relative viability (NCI-H1975; first compound 8 µM) of 0.561. For the same compound, the relative viability (NCI-H650; first compound 0.08 µM) was 0.536, the relative viability (NCI-H650; first compound 0.253 µM) was 0.555 and the relative viability (NCI-H650; first compound 0.8 µM) was 0.405. For the same compound, the relative viability (NCI-H650; first compound 2.53 µM) was 0.537, the relative viability (NCI-H650; first compound 8 µM) was 0.606 and the relative viability (NCI-H2023; first compound 0.08 µM) was 0.418. For the same compound, the relative viability (NCI-H2023; first compound 0.253 µM) was 0.465, the relative viability (NCI-H2023; first compound 0.8 µM) was 0.413 and the relative viability (NCI-H2023; first compound 2.53 µM) was 0.307. For the same compound, the relative viability (NCI-H2023; first compound 8 µM) was 0.231.
